{"source": "patent US9585876B2", "about": "(NuSirt Sciences, Inc., priority 2013, dated 2017)", "key": {"[1]": {"conditions": "oral dosing of about 3,000 mg; cited from earlier work"}, "[2]": {"system": "LDL receptor knockout (LDLRKO) mice", "test": "Plasma total cholesterol, cholesterol esters and triglycerides in LDLRKO mice on western diet, 28 days (Example 7)", "type": "in vivo", "description": "The mice were provided free access to an atherogenic western diet (WD) containing 0.21% cholesterol (by weight) and 40% calories from fat and water for 4 weeks prior to treatment. […] The treatments were administered for 28 days continuously.\nBlood samples of the mice in all groups were obtained from tails of the mice at day 28 after the administration. The serum/plasma levels of triglyceride, total cholesterol and cholesterol esters were measured."}, "[3]": {"system": "C. elegans", "test": "Lifespan of C. elegans (Example 8)", "type": "in vivo, Caenorhabditis elegans", "conditions": "leucine (0.5 mM) or nicotinic acid (10 nM), each alone", "description": "Eggs were hatched on a starved plate overnight. […] To study lifespan, 50 young adult worms were placed on NGM agar plates seeded with E. coli strain OP-50 (=day 1 of study). All treatments were added with the indicated concentrations to the agar plates. […] The worms were maintained at 21° C. throughout the duration of the study. Worms were transferred to new plates daily to eliminate progeny. […] The study was continued until the last animal was dead. Data were analyzed via Kaplan-Meier survival curves using Prism 6 (GraphPad Software) and statistical significance was determined by the Log-rank (Mantel-Cox) test."}, "[4]": {"system": "Patients that experience acute chest pain and are pre-diagnosed with hyperlipidemia", "test": "Atherosclerotic plaque size by quantitative coronary angiography in patients, 3 years (Example 6)", "type": "in vivo, human", "conditions": "orally twice a day, (a) 50 mg nicotinic acid alone, (b) 50 mg nicotinic acid + 1135 mg leucine, (c) 50 mg nicotinic acid + 1135 mg leucine + 50 mg resveratrol, (d) 1135 mg leucine + 50 mg resveratrol", "description": "The treatments are administered orally twice a day, for 3 years continuously. The size of atherosclerotic plaque is measured at day 0, months 6, 12, 18, 24, 30 and 36 by quantitative coronary angiography."}, "[5]": {"system": "Sirt1", "test": "Sirt1 level by Western blotting in C2C12 myotubes (Example 1)"}, "[6]": {"system": "AMPK", "conditions": "3T3-L1 adipocytes; concentrations of nicotinic acid <100 nM alone", "description": "3T3-L1 preadipocytes (American Type Culture Collection) were plated at a density of 8000 cells/cm2 (10 cm2 dish) and grown in Dulbecco's modified eagle's medium (DMEM) containing 10% fetal bovine serum (FBS), and antibiotics (growth medium) at 37° C. in 5% CO2. […] Preadipocytes were maintained in this differentiation medium for 3 days and subsequently cultured in growth medium. Cultures were re-fed every 2-3 days to allow >90% cells to reach fully differentiation before conducting chemical treatment.\nWestern blotting was performed with antibodies against AMPK and Phospho-AMPKα (Thr172) obtained from Cell Signaling (Danvers, Mass.). […] Total 30 μg of protein from the cell lysate was resolved on 10% Tris/HCL polyacrylamide gels (Criterion precast gel, Bio-Rad Laboratories, Hercules, Calif.), transferred to PVDF membranes, incubated in blocking buffer (3% BSA in TBS), incubated with primary antibody (P-AMPK), washed and incubated with secondary horseradish peroxidase-conjugated antibody."}, "[7]": {"system": "Patients that are pre-diagnosed with hyperlipidemia", "test": "Lipid levels and cutaneous vasodilation in hyperlipidemia patients, 60 days (Example 5)", "type": "in vivo, human", "conditions": "for HDL level compared to day 0 values / triglyceride, LDL and cholesterol levels compared to day 0 values: orally twice a day, 60 days", "description": "Patients that are pre-diagnosed with hyperlipidemia are admitted for the randomized and double blind study. […] The treatments are administered orally twice a day, for 60 days continuously.\nBlood samples of the patients in all groups are obtained from at day 0, 30 and 60 after the administration. The serum/plasma levels of triglyceride, cholesterol, LDL and HDL are measured. Cutaneous vasodilation is measured by laser-Doppler flowmeter and the discomfort level described by the patients."}, "[8]": {"system": "LDL receptor knockout (LDLRKO) mice", "test": "Lipid levels, atherosclerotic plaque and cutaneous vasodilation in LDLRKO mice on atherogenic diet, 60 days (Example 4)", "type": "in vivo", "conditions": "for HDL level in the blood stream compared to negative control group (atherogenic diet only) / triglyceride, LDL and cholesterol levels in the blood stream compared to negative control group (atherogenic diet only): 60 days", "description": "All chemicals are purchased from Sigma.\nCutaneous vasodilation is measured by laser-Doppler flowmeter."}, "[9]": {"conditions": "group (e) 3000 mg nicotinic acid alone"}, "[10]": {"conditions": "group (e) 10 g nicotinic acid/kg diet alone"}}, "data": [{"compound": "NC(=O)c1ccc[n+]([C@@H]2O[C@H](CO)[C@@H](O)[C@H]2O)c1", "note": "[nicotinamide riboside]", "values": [{"measurement": "circulating level of nicotinic acid or nicotinamide riboside in a subject", "setting": "[1]", "result": "about 10 μM"}]}, {"compound": "CC(C)C[C@H](N)C(=O)O", "note": "[leucine]", "values": [{"measurement": "effect on cholesterol esters", "setting": "[2]; leucine 24 g/kg diet alone", "result": "no independent effect"}, {"measurement": "effect on total cholesterol", "setting": "[2]; leucine 24 g/kg diet alone", "result": "no independent effect"}, {"measurement": "effect on lifespan", "setting": "[3]", "result": "no independent effect"}]}, {"compound": "O=C(O)c1cccnc1", "note": "[nicotinic acid]", "values": [{"measurement": "atherosclerotic plaque (lesion) size compared to day 0 values", "setting": "[4]", "result": "similar, without statistically significant difference"}, {"measurement": "circulating level of nicotinic acid or nicotinamide riboside in a subject", "setting": "[1]", "result": "about 10 μM"}, {"measurement": "decrease in cholesterol esters", "setting": "[2]; nicotinic acid 1,000 mg/kg diet, p<0.002", "result": 28, "unit": "%"}, {"measurement": "decrease in total cholesterol", "setting": "[2]; nicotinic acid 1,000 mg/kg diet, p<0.01", "result": 20, "unit": "%"}, {"measurement": "Sirt1 levels", "setting": "[5]; 24 hours, nicotinic acid 10 nM, leucine 0.5 mM, nicotinic acid alone", "result": "did not have a significant effect"}, {"measurement": "effect of nicotinic acid alone on the variable studied (Sirt1), dose-response study", "setting": "[5]; concentrations of nicotinic acid <100 nM alone", "result": "no effect"}, {"measurement": "effect of nicotinic acid alone on the variable studied (P-AMPK/AMPK), dose-response study", "setting": "[6]", "result": "no effect"}, {"measurement": "cutaneous vasodilation compared to all the other groups including placebo", "setting": "[7]; 3000 mg of nicotinic acid alone, laser-Doppler flowmeter and discomfort level", "result": "significant higher"}, {"measurement": "HDL level compared to day 0 values", "setting": "[7]; (a) 50 mg nicotinic acid alone, (b) 50 mg nicotinic acid + 1135 mg leucine, (c) 50 mg nicotinic acid + 1135 mg leucine + 50 mg resveratrol", "result": "similar, without statistically significant difference"}, {"measurement": "triglyceride, LDL and cholesterol levels compared to day 0 values", "setting": "[7]; (a) 50 mg nicotinic acid alone, (b) 50 mg nicotinic acid + 1135 mg leucine, (c) 50 mg nicotinic acid + 1135 mg leucine + 50 mg resveratrol, (d) 1135 mg leucine + 50 mg resveratrol", "result": "similar, without statistically significant difference"}, {"measurement": "HDL level compared to day 0 values", "setting": "[7]; [9]", "result": "significantly higher"}, {"measurement": "triglyceride, LDL and cholesterol levels compared to day 0 values", "setting": "[7]; [9]", "result": "significantly lower"}, {"measurement": "effect on lifespan", "setting": "[3]", "result": "no independent effect"}, {"measurement": "cutaneous vasodilation compared to all the other groups including control groups", "setting": "[8]; 10 g of nicotinic acid/kg diet alone, laser-Doppler flowmeter", "result": "significant higher"}, {"measurement": "HDL level in the blood stream compared to negative control group (atherogenic diet only)", "setting": "[8]; [10]", "result": "significantly higher"}, {"measurement": "triglyceride, LDL and cholesterol levels in the blood stream compared to negative control group (atherogenic diet only)", "setting": "[8]; [10]", "result": "significantly lower"}, {"measurement": "HDL level in the blood stream compared to negative control group (atherogenic diet only)", "setting": "[8]; per kg diet: (a) 250 mg nicotinic acid alone, (b) 250 mg nicotinic acid + 24 g leucine, (c) 50 mg nicotinic acid + 24 g leucine + 12.5 mg resveratrol", "result": "similar, without statistically significant difference"}, {"measurement": "triglyceride, LDL and cholesterol levels in the blood stream compared to negative control group (atherogenic diet only)", "setting": "[8]; per kg diet: (a) 250 mg nicotinic acid alone, (b) 250 mg nicotinic acid + 24 g leucine, (c) 50 mg nicotinic acid + 24 g leucine + 12.5 mg resveratrol, (d) 24 g leucine + 12.5 mg resveratrol", "result": "similar, without statistically significant difference"}, {"measurement": "atherosclerotic lesion size in the aorta", "setting": "[8]; day 60, group (e) 10 g nicotinic acid/kg diet alone", "result": "significantly reduced"}, {"measurement": "atherosclerotic lesion size in the aorta", "setting": "[8]; day 60, per kg diet: (a) 250 mg nicotinic acid alone, (b) 250 mg nicotinic acid + 24 g leucine, (c) 50 mg nicotinic acid + 24 g leucine + 12.5 mg resveratrol, (d) 24 g leucine + 12.5 mg resveratrol", "result": "No significant reduction"}]}]}
